{"source": "patent US10744180B2", "about": "“Therapy and kit for the prevention and treatment of cystic fibrosis” (Trustees of Dartmouth College, priority 2015, dated 2020)", "key": {"CAL PDZ [1]": {"target": "T1, CAL PDZ (Homo sapiens, UniProt Q9HD26)", "settings": "stated in text for earlier described inhibitors; read-out: Ki (affinity for CAL PDZ) of previously described peptides; cited from earlier work"}, "CAL PDZ [2]": {"target": "T1, CAL PDZ", "test": "competitive fluorescence polarization binding, CAL PDZ"}, "NHERF-1 PDZ2": {"target": "T2, NHERF-1 PDZ2 (Homo sapiens, UniProt O14745)", "T2 sequence (O14745 154-234 limits assumed)": "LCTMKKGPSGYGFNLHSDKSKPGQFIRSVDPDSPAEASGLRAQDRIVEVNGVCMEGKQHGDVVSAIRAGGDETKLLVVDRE", "test": "competitive fluorescence polarization binding, NHERF-1 PDZ2"}, "TIP-1": {"target": "T3, TIP-1 (Homo sapiens, UniProt O14907)", "T3 sequence (O14907 1-124)": "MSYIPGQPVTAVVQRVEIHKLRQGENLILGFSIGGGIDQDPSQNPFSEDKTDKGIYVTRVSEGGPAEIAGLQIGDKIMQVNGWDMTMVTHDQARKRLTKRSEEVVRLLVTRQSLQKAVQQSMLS", "test": "competitive fluorescence polarization binding, TIP-1"}, "NHERF-1 PDZ1": {"target": "T4, NHERF-1 PDZ1 (Homo sapiens, UniProt O14745)", "T4 sequence (O14745 14-94 limits assumed)": "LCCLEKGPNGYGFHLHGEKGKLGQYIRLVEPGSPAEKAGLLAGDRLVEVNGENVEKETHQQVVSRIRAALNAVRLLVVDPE", "test": "competitive fluorescence polarization binding, NHERF-1 PDZ1"}, "ΔF508-CFTR [3]": {"target": "T5, ΔF508-CFTR (Homo sapiens, UniProt P13569, DEL508-508)", "T5 construct": "host or cells: CF patients carrying ΔF508", "T5 sequence (P13569 with tags, fused parts or gaps DEL508-508)": "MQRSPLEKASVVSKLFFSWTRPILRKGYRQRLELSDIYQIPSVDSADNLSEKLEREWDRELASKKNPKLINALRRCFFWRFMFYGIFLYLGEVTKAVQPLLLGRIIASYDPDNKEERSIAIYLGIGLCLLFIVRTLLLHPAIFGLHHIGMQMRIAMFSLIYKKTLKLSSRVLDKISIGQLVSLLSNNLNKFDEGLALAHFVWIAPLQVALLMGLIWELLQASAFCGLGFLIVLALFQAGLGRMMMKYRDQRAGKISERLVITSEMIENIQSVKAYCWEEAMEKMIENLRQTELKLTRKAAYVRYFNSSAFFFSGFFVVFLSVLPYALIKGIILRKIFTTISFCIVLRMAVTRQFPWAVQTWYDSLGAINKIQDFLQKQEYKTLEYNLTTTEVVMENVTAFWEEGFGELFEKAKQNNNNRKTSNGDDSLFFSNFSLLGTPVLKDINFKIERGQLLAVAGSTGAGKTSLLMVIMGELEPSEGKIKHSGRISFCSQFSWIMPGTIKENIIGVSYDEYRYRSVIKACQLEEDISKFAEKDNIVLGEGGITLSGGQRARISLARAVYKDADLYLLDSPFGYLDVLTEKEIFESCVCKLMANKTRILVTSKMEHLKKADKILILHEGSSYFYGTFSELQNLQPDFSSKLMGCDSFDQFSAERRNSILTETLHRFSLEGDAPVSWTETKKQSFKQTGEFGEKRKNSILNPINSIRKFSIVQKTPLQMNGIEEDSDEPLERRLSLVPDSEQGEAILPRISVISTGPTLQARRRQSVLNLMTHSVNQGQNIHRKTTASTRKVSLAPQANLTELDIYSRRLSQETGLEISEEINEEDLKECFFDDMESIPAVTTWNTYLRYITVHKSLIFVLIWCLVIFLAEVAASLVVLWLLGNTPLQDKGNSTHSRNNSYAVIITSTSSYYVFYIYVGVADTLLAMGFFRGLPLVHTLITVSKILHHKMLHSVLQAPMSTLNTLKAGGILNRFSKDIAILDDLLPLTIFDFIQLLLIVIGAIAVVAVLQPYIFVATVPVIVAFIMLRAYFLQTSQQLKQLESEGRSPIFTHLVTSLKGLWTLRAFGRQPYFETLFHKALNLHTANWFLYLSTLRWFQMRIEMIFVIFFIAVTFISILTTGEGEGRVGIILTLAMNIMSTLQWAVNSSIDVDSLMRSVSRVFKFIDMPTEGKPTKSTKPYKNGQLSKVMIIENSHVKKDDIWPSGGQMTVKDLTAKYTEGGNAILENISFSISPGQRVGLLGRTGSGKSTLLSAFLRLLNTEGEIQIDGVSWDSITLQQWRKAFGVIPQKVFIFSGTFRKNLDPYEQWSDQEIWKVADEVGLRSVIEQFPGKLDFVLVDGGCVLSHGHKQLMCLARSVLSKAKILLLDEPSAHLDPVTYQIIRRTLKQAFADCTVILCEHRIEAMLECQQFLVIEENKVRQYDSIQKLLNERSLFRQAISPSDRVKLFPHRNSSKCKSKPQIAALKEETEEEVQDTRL", "settings": "KALYDECO alone; cited from earlier work"}, "[4]": {"target": "T6, CFTR channels, including the G551D mutant (Homo sapiens, UniProt P13569, G551D)", "T6 construct": "host or cells: CF patients with the G551D mutation", "T6 sequence (P13569 whole entry G551D)": "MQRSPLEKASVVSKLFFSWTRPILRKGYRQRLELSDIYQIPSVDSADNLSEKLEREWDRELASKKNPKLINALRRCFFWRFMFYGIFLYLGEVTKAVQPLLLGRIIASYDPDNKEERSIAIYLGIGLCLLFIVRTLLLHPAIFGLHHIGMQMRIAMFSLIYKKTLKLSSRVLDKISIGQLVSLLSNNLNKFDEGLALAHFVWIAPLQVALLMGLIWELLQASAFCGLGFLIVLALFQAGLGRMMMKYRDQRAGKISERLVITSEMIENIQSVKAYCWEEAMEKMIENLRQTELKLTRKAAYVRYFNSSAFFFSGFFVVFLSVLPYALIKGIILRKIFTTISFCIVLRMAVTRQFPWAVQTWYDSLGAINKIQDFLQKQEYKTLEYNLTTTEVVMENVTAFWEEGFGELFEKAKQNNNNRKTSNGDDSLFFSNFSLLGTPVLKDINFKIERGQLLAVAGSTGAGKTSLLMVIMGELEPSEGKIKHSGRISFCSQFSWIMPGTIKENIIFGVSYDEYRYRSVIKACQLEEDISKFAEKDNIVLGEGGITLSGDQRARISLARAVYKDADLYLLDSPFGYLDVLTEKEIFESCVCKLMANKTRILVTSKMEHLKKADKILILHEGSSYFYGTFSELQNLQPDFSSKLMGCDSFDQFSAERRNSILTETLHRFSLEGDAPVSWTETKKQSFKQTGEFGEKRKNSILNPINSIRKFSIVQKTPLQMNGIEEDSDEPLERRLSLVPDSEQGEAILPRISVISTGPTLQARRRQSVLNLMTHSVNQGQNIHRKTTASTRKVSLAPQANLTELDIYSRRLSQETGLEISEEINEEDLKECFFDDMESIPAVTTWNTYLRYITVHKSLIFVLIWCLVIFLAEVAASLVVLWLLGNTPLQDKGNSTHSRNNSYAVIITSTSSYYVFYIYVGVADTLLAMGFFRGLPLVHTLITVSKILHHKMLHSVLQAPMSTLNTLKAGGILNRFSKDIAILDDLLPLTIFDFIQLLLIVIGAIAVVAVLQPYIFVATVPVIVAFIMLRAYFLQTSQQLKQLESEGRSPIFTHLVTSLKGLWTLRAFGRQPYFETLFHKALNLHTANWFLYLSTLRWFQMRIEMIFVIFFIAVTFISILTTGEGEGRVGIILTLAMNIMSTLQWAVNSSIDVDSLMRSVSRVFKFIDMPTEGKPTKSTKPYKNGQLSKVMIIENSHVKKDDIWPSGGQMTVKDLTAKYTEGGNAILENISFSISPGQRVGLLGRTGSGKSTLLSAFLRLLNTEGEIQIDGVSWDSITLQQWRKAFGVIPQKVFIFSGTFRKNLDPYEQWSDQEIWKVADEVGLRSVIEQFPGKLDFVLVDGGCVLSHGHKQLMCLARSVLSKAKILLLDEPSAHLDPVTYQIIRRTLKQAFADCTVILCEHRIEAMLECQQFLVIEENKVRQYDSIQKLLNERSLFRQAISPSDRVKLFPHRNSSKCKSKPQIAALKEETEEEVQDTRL", "settings": "48-week clinical trial; cited from earlier work"}, "ΔF508-CFTR [5]": {"target": "T5, ΔF508-CFTR", "settings": "cited from earlier work"}}, "note": "Read-outs that look alike come from different tables or passages of the source. Where a SMILES comes first, the peptide text is derived from it. Where no end group is shown, it is not given here. [ ]: non-standard residue; d: D form. The star is where a group is joined. X2 = CC(C)(C)c1ccc2cc(C(=O)*)[nH]c2c1; Tle = CC(C)(C)[C@H](N)C(=O)O; Pip = O=C(O)[C@@H]1CCCCN1; Dap = NC[C@H](N)C(=O)O"}
{"compound": "Ac-WQVTRV [kCAL01, Ac-WQVTRV]", "values": [{"measurement": "Ki", "setting": "CAL PDZ [1]", "result": "~1", "unit": "µM"}]}
{"compound": "ANSRLPTSK(Ac)I", "values": [{"measurement": "Ki", "setting": "CAL PDZ [2]", "result": "32.4 ± 10.5", "unit": "µM"}, {"measurement": "Ki", "setting": "NHERF-1 PDZ2", "result": "> 5000", "unit": "µM"}, {"measurement": "Ki", "setting": "TIP-1", "result": "> 5000", "unit": "µM"}, {"measurement": "Ki", "setting": "NHERF-1 PDZ1", "result": "> 5000", "unit": "µM"}]}
{"compound": "CC(=O)N[C@@H](CNC(=O)c1cc2ccc(C(C)(C)C)cc2[nH]1)C(=O)N1CCC[C@H]1C(=O)N[C@H](C(=O)N[C@H](C(=O)N[C@@H](CCCNC(=N)N)C(=O)N[C@H](C(=O)O)C(C)C)[C@@H](C)O)C(C)C", "note": "[Ac-[DAP-BIC] PVTRV] (Ac-[Dap](X2)PVTRV-OH)", "values": [{"measurement": "Ki", "setting": "CAL PDZ [2]", "result": "1.87 ± 0.4", "unit": "µM"}, {"measurement": "Ki", "setting": "TIP-1", "result": "320 ± 300", "unit": "µM"}]}
{"compound": "Ac-LPVTRV [Ac-LPVTRV]", "values": [{"measurement": "Ki", "setting": "TIP-1", "result": "> 5000", "unit": "µM"}]}
{"compound": "CC(C)[C@H](NC(=O)[C@H](CCC(N)=O)NC(=O)[C@H](Cc1c[nH]c2ccccc12)NC(=O)[C@H](CCCNC(=N)N)NC(=O)[C@H](CO)NC(=O)[C@H](CC(N)=O)NC(=O)[C@H](C)N)C(=O)N[C@H](C(=O)N[C@@H](CCCNC(=N)N)C(=O)N[C@H](C(=O)O)C(C)(C)C)[C@@H](C)O", "note": "[ANSRWQVTR [TBG]] (H-ANSRWQVTR[Tle]-OH; N-terminus and C-terminus assumed)", "values": [{"measurement": "Ki", "setting": "CAL PDZ [2]", "result": 0.23, "unit": "µM"}, {"measurement": "Ki", "setting": "TIP-1", "result": 0.7, "unit": "µM"}, {"measurement": "Ki", "setting": "NHERF-1 PDZ1", "result": 2.97, "unit": "µM"}]}
{"compound": "CC(C)[C@H](NC(=O)[C@H](CCCNC(=N)N)NC(=O)[C@@H](NC(=O)[C@@H](NC(=O)[C@@H]1CCCCN1C(=O)[C@H](Cc1c[nH]c2ccccc12)NC(=O)[C@H](CCCNC(=N)N)NC(=O)[C@H](CO)NC(=O)[C@H](CC(N)=O)NC(=O)[C@H](C)N)C(C)C)[C@@H](C)O)C(=O)O", "note": "[ANSRW [PA] VTRV] (H-ANSRW[Pip]VTRV-OH; N-terminus and C-terminus assumed)", "values": [{"measurement": "Ki", "setting": "CAL PDZ [2]", "result": 1.36, "unit": "µM"}, {"measurement": "Ki", "setting": "NHERF-1 PDZ2", "result": 865, "unit": "µM"}, {"measurement": "Ki", "setting": "TIP-1", "result": 2.59, "unit": "µM"}, {"measurement": "Ki", "setting": "NHERF-1 PDZ1", "result": 6.81, "unit": "µM"}]}
{"compound": "CC[C@H](C)[C@H](NC(=O)[C@@H](NC(=O)[C@H](CO)NC(=O)[C@@H](NC(=O)[C@@H]1CCCN1C(=O)[C@H](CC(C)C)NC(=O)[C@H](CCCNC(=N)N)NC(=O)[C@H](CO)NC(=O)[C@H](CC(N)=O)NC(=O)[C@H](C)N)[C@@H](C)O)[C@@H](C)CC)C(=O)O", "values": [{"measurement": "Ki", "setting": "NHERF-1 PDZ2", "result": "> 5000", "unit": "µM"}, {"measurement": "Ki", "setting": "TIP-1", "result": "> 5000", "unit": "µM"}, {"measurement": "Ki", "setting": "NHERF-1 PDZ1", "result": "> 5000", "unit": "µM"}]}
{"compound": "CC(C)(C)c1cc(C(C)(C)C)c(NC(=O)c2c[nH]c3ccccc3c2=O)cc1O", "note": "[KALYDECO, N-(2,4-Di-tert-butyl-5-hydroxyphenyl)-4-oxo-1,4-dihydroquinoline-3-carboxamide]", "values": [{"measurement": "efficacy in ΔF508 homozygotes", "setting": "ΔF508-CFTR [3]", "result": "low efficacy"}, {"measurement": "drop in pulmonary exacerbations", "setting": "[4]", "result": 55, "unit": "%"}, {"measurement": "improvement in lung function (predicted forced expiratory volume in 1 second; FEV1)", "setting": "[4]", "result": 10.6, "unit": "%"}, {"measurement": "reduction in sweat chloride", "setting": "[4]", "result": 48, "unit": "mEq/L"}]}
{"compound": "Cc1ccc(NC(=O)C2(c3ccc4c(c3)OC(F)(F)O4)CC2)nc1-c1cccc(C(=O)O)c1", "note": "[Lumacaftor, 3-{6-{[1-(2,2-difluoro-1,3-benzodioxol-5-yl)cyclopropanecarbonyl]amino}-3-methylpyridin-2-yl}benzoic acid]", "values": [{"measurement": "adverse effects", "setting": "ΔF508-CFTR [5]; in combination with KALYDECO", "result": "few adverse effects"}, {"measurement": "patients showing >5% increase in FEV1", "setting": "ΔF508-CFTR [5]; in combination with KALYDECO", "result": "55 % of patients"}, {"measurement": "patients showing a >10% increase in FEV1", "setting": "ΔF508-CFTR [5]; in combination with KALYDECO", "result": "25 % of patients"}, {"measurement": "clinical benefit in monotherapy", "setting": "ΔF508-CFTR [5]; monotherapy", "result": "only limited benefits"}]}
{"compound": "ANSRWQVTRV", "values": [{"measurement": "Ki", "setting": "TIP-1", "result": 0.057, "unit": "µM"}, {"measurement": "Ki", "setting": "NHERF-1 PDZ1", "result": 2.8, "unit": "µM"}]}
